Columns and labels:
Type in all cases: cell-based
Aeromonas hydrophila = assay: MIC against Gram-negative bacteria: Aeromonas hydrophila
Method in brief: (§1)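 The recombinant human-originated EGF domain proteins were serially diluted two-fold against bacteria at 5×10^5 CFU/mL in LB medium. After shaken incubation at 37° C, the lowest concentration with no bacterial growth was recorded as the MIC.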

E. coli BL21 = assay: MIC against Gram-negative bacteria: E. coli BL21
Method in brief: as §1

Citrobacter diversus = assay: MIC against Gram-negative bacteria: Citrobacter diversus
Method in brief: as §1

Proteus vulgaris = assay: MIC against Gram-negative bacteria: Proteus vulgaris
Method in brief: as §1

Moraxella catarrhalis = assay: MIC against Gram-negative bacteria: Moraxella catarrhalis
Method in brief: as §1

Proteus mirabilis = assay: MIC against Gram-negative bacteria: Proteus mirabilis
Method in brief: as §1

E. coli DH5α = assay: Antibacterial activity: MIC and growth curve against E. coli DH5α in 96-well plate; details: minimal inhibitory concentration against E. coli DH5α; 96-well plate, 5×10^5 CFU/mL, 37° C., judged after 8 h
Method in brief: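 MIC taken as lowest protein level with no bacterial growth, tracked by A600 every 30 min during 37 °C, 175 rpm culture. Two-fold protein series 50-12.5 μg/mL final, triplicate wells, against 5×10^5 CFU/mL of LB-washed mid-log cells.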

Serratia marcescens = assay: MIC against Gram-negative bacteria: Serratia marcescens
Method in brief: as §1

Pseudomonas aeruginosa = assay: MIC against Gram-negative bacteria: Pseudomonas aeruginosa
Method in brief: as §1

Enterobacter cloacae = assay: MIC against Gram-negative bacteria: Enterobacter cloacae
Method in brief: as §1

Klebsiella pneumonia = assay: MIC against Gram-negative bacteria: Klebsiella pneumonia
Method in brief: as §1

[1] = Aeromonas hydrophila, 96-well plate, 5×10^5 CFU/mL, 37° C., 10 h
[2] = E. coli BL21, 96-well plate, 5×10^5 CFU/mL, 37° C., 10 h
[3] = Citrobacter diversus, 96-well plate, 5×10^5 CFU/mL, 37° C., 10 h
[4] = Proteus vulgaris, 96-well plate, 5×10^5 CFU/mL, 37° C., 10 h
[5] = Moraxella catarrhalis, 96-well plate, 5×10^5 CFU/mL, 37° C., 10 h
[6] = Proteus mirabilis, 96-well plate, 5×10^5 CFU/mL, 37° C., 10 h
[7] = Serratia marcescens, 96-well plate, 5×10^5 CFU/mL, 37° C., 10 h
[8] = Pseudomonas aeruginosa, 96-well plate, 5×10^5 CFU/mL, 37° C., 10 h
[9] = Enterobacter cloacae, 96-well plate, 5×10^5 CFU/mL, 37° C., 10 h
[10] = Klebsiella pneumonia, 96-well plate, 5×10^5 CFU/mL, 37° C., 10 h
[11] = 10 h cultivation at 37° C., 5×10^5 CFU/mL, two-fold serial dilution

Question: Which results are given for “PRT1025 (GHNYCSVNNGGCTHLCLATPGSRTCRCPDNTLGVDCI; listed as Homo sapiens)”?
Answer: MIC (Aeromonas hydrophila; A. hydrophila, 10 h cultivation at 37° C.): 100 µg/mL; MIC (E. coli BL21; E. coli BL21, 10 h cultivation at 37° C.): 25 µg/mL; MIC (Citrobacter diversus; C. diversus, 10 h cultivation at 37° C.): 50 µg/mL; MIC (Proteus vulgaris; P. vulgaris, 10 h cultivation at 37° C.): 25 µg/mL; MIC (Moraxella catarrhalis; M. catarrhalis, 10 h cultivation at 37° C.): 25 µg/mL; MIC (Proteus mirabilis; P. mirabilis, 10 h cultivation at 37° C.): 12.5 µg/mL; MIC (E. coli DH5α): 50 µg/mL; MIC (Serratia marcescens; S. marcescens, 10 h cultivation at 37° C.): 50 µg/mL; MIC (Pseudomonas aeruginosa; P. aeruginosa, 10 h cultivation at 37° C.): 12.5 µg/mL; MIC (Enterobacter cloacae; E. cloacae, 10 h cultivation at 37° C.): 50 µg/mL; MIC (Klebsiella pneumonia; K. pneumonia, 10 h cultivation at 37° C.): 25 µg/mL

Question: How did the “MIC (μg/mL) A. hydrophila” value (Aeromonas hydrophila; [1]) turn out when “PRT109 (ASQACRTNPCLHGGRCLEVEGHRLCHCPVGYTGAFCD; listed as Homo sapiens)” was run?
Answer: 12.5 µg/mL

Question: And the “MIC (μg/mL) E. coli BL21” value (E. coli BL21; [2])?
Answer: 12.5 µg/mL

Question: What about the “MIC (μg/mL) C. diversus” value (Citrobacter diversus; [3]) of the same substance?
Answer: 12.5 µg/mL

Question: And the “MIC (μg/mL) P. vulgaris” value (Proteus vulgaris; [4])?
Answer: 25 µg/mL

Question: What about the “MIC (μg/mL) M. catarrhalis” value (Moraxella catarrhalis; [5]) of the same substance?
Answer: 25 µg/mL

Question: And the “MIC (μg/mL) P. mirabilis” value (Proteus mirabilis; [6])?
Answer: 12.5 µg/mL

Question: What about the MIC (E. coli DH5α) of the same substance?
Answer: 12.5 µg/mL

Question: And the “MIC (μg/mL) S. marcescens” value (Serratia marcescens; [7])?
Answer: 50 µg/mL

Question: And the “MIC (μg/mL) P. aeruginosa” value (Pseudomonas aeruginosa; [8])?
Answer: 12.5 µg/mL

Question: And the “MIC (μg/mL) E. cloacae” value (Enterobacter cloacae; [9])?
Answer: 12.5 µg/mL

Question: And the “MIC (μg/mL) K. pneumonia” value (Klebsiella pneumonia; [10])?
Answer: 12.5 µg/mL

Question: “PRT1169 (RDSQCDEATCNNGGTCYDEGDAFKCMCPGGWEGTTCN; listed as Homo sapiens)” was tested. Which “MIC A. hydrophila” value (Aeromonas hydrophila; [11]) did it give?
Answer: 12.5 µg/mL

Question: And the “MIC E. coli BL21” value (E. coli BL21; [11])?
Answer: 25 µg/mL

Question: What about the “MIC C. diversus” value (Citrobacter diversus; [11]) of the same substance?
Answer: 50 µg/mL

Question: What about the “MIC P. vulgaris” value (Proteus vulgaris; [11]) of the same substance?
Answer: 12.5 µg/mL

Question: And the “MIC M. catarrhalis” value (Moraxella catarrhalis; [11])?
Answer: 12.5 µg/mL

Question: What about the “MIC P. mirabilis” value (Proteus mirabilis; [11]) of the same substance?
Answer: 12.5 µg/mL

Question: What about the MIC (E. coli DH5α) of the same substance?
Answer: 50 µg/mL

Question: What about the “MIC S. marcescens” value (Serratia marcescens; [11]) of the same substance?
Answer: 12.5 µg/mL

Question: What about the “MIC P. aeruginosa” value (Pseudomonas aeruginosa; [11]) of the same substance?
Answer: 50 µg/mL

Question: And the “MIC E. cloacae” value (Enterobacter cloacae; [11])?
Answer: 12.5 µg/mL

Question: And the “MIC K. pneumonia” value (Klebsiella pneumonia; [11])?
Answer: 25 µg/mL

Question: With “PRT1307 (HECPGGAETPCNGHGTCLDGMDRNGTCVCQENFRGSACQ; listed as Homo sapiens)” as the substance, how does the “MIC against A. hydrophila” value (Aeromonas hydrophila; [1]) read?
Answer: 50 µg/mL

Question: What about the “MIC against E. coli BL21” value (E. coli BL21; [2]) of the same substance?
Answer: 50 µg/mL

Question: What about the “MIC against C. diversus” value (Citrobacter diversus; [3]) of the same substance?
Answer: 12.5 µg/mL

Question: And the “MIC against P. vulgaris” value (Proteus vulgaris; [4])?
Answer: 12.5 µg/mL

Question: And the “MIC against M. catarrhalis” value (Moraxella catarrhalis; [5])?
Answer: 50 µg/mL

Question: What about the “MIC against P. mirabilis” value (Proteus mirabilis; [6]) of the same substance?
Answer: 25 µg/mL

Question: What about the MIC (E. coli DH5α) of the same substance?
Answer: 12.5 µg/mL

Question: What about the “MIC against S. marcescens” value (Serratia marcescens; [7]) of the same substance?
Answer: 25 µg/mL

Question: And the “MIC against P. aeruginosa” value (Pseudomonas aeruginosa; [8])?
Answer: 12.5 µg/mL

Question: And the “MIC against E. cloacae” value (Enterobacter cloacae; [9])?
Answer: 100 µg/mL

Question: What about the “MIC against K. pneumonia” value (Klebsiella pneumonia; [10]) of the same substance?
Answer: 50 µg/mL

Question: “PRT1360 (NKPLCLNNCYNRGRCVENECVCDEGFTGEDCS; listed as Homo sapiens)” was tested. Which “MIC against A. hydrophila” value (Aeromonas hydrophila; Aeromonas hydrophila, 5×10^5 CFU/mL, 10 h cultivation at 37° C.) did it give?
Answer: 50 µg/mL

Question: What about the “MIC against E. coli BL21” value (E. coli BL21; E. coli BL21, 5×10^5 CFU/mL, 10 h cultivation at 37° C.) of the same substance?
Answer: 25 µg/mL

Question: And the “MIC against C. diversus” value (Citrobacter diversus; Citrobacter diversus, 5×10^5 CFU/mL, 10 h cultivation at 37° C.)?
Answer: 12.5 µg/mL

Question: And the “MIC against P. vulgaris” value (Proteus vulgaris; Proteus vulgaris, 5×10^5 CFU/mL, 10 h cultivation at 37° C.)?
Answer: 25 µg/mL

Question: What about the “MIC against M. catarrhalis” value (Moraxella catarrhalis; Moraxella catarrhalis, 5×10^5 CFU/mL, 10 h cultivation at 37° C.) of the same substance?
Answer: 50 µg/mL

Question: What about the “MIC against P. mirabilis” value (Proteus mirabilis; Proteus mirabilis, 5×10^5 CFU/mL, 10 h cultivation at 37° C.) of the same substance?
Answer: 12.5 µg/mL

Question: What about the MIC (E. coli DH5α) of the same substance?
Answer: 12.5 µg/mL

Question: And the “MIC against S. marcescens” value (Serratia marcescens; Serratia marcescens, 5×10^5 CFU/mL, 10 h cultivation at 37° C.)?
Answer: 50 µg/mL

Question: And the “MIC against P. aeruginosa” value (Pseudomonas aeruginosa; Pseudomonas aeruginosa, 5×10^5 CFU/mL, 10 h cultivation at 37° C.)?
Answer: 50 µg/mL

Question: What about the “MIC against E. cloacae” value (Enterobacter cloacae; Enterobacter cloacae, 5×10^5 CFU/mL, 10 h cultivation at 37° C.) of the same substance?
Answer: 12.5 µg/mL

Question: What about the “MIC against K. pneumonia” value (Klebsiella pneumonia; Klebsiella pneumonia, 5×10^5 CFU/mL, 10 h cultivation at 37° C.) of the same substance?
Answer: 25 µg/mL

Question: “PRT163 (EYNECLSAPCLNAATCRDLVNGYECVCLAEYKGTHCE; listed as Homo sapiens)” was tested. Which “MIC (μg/mL) A. hydrophila” value (Aeromonas hydrophila; A. hydrophila, 10 h cultivation at 37° C., 5×10^5 CFU/mL) did it give?
Answer: 25 µg/mL

Question: And the “MIC (μg/mL) E. coli BL21” value (E. coli BL21; E. coli BL21, 10 h cultivation at 37° C., 5×10^5 CFU/mL)?
Answer: 25 µg/mL

Question: What about the “MIC (μg/mL) C. diversus” value (Citrobacter diversus; C. diversus, 10 h cultivation at 37° C., 5×10^5 CFU/mL) of the same substance?
Answer: 12.5 µg/mL

Question: What about the “MIC (μg/mL) P. vulgaris” value (Proteus vulgaris; P. vulgaris, 10 h cultivation at 37° C., 5×10^5 CFU/mL) of the same substance?
Answer: 25 µg/mL

Question: What about the “MIC (μg/mL) M. catarrhalis” value (Moraxella catarrhalis; M. catarrhalis, 10 h cultivation at 37° C., 5×10^5 CFU/mL) of the same substance?
Answer: 25 µg/mL

Question: And the “MIC (μg/mL) P. mirabilis” value (Proteus mirabilis; P. mirabilis, 10 h cultivation at 37° C., 5×10^5 CFU/mL)?
Answer: 50 µg/mL

Question: What about the MIC (E. coli DH5α) of the same substance?
Answer: 12.5 µg/mL

Question: What about the “MIC (μg/mL) S. marcescens” value (Serratia marcescens; S. marcescens, 10 h cultivation at 37° C., 5×10^5 CFU/mL) of the same substance?
Answer: 12.5 µg/mL

Question: What about the “MIC (μg/mL) P. aeruginosa” value (Pseudomonas aeruginosa; P. aeruginosa, 10 h cultivation at 37° C., 5×10^5 CFU/mL) of the same substance?
Answer: 12.5 µg/mL

Question: And the “MIC (μg/mL) E. cloacae” value (Enterobacter cloacae; E. cloacae, 10 h cultivation at 37° C., 5×10^5 CFU/mL)?
Answer: 12.5 µg/mL

Question: What about the “MIC (μg/mL) K. pneumonia” value (Klebsiella pneumonia; K. pneumonia, 10 h cultivation at 37° C., 5×10^5 CFU/mL) of the same substance?
Answer: 25 µg/mL

— patent publication US9833497B2, “Human originated EGF domain proteins and use of the same” (CHENGDU SOURCEBIO LIMITED-LIABILITY COMPANY, priority 2013, dated 2017)
